{"source": "patent US7186738B2", "about": "“Antibacterial oxalidinones” (AstraZeneca AB, priority 2003, dated 2007)", "key": {"[1]": {"molecular_target": "T1, MAO-A (Homo sapiens, UniProt P21397)", "T1 construct": "made in house; host or cells: yeast", "T1 sequence (P21397 1-527)": "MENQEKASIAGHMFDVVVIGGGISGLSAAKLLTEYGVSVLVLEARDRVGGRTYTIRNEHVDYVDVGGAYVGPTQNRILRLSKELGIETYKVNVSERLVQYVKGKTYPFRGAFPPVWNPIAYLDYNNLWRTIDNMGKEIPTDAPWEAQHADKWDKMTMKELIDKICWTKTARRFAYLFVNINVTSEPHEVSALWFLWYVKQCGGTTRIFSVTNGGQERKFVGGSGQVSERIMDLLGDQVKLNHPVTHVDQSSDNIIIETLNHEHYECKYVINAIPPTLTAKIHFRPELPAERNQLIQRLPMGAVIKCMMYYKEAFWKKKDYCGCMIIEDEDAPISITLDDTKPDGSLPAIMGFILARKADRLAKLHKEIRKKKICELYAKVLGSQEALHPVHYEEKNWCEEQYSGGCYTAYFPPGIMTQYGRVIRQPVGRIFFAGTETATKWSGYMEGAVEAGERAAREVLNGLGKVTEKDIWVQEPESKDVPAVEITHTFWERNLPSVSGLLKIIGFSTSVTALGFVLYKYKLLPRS", "test": "MAO-A standard in-vitro assay, human liver enzyme expressed in yeast", "format": "biochemical", "conditions": "read-out: Ki value against MAO-A (converted)", "protocol": "The activity of the compounds of the invention against MAO-A was tested using a standard in-vitro assay based on human liver enzyme expressed in yeast as described in Biochem. Biophys. Res. Commun. 1991, 181, 1084–1088."}, "[2]": {"tested_on": "Enterococcus faecium", "test": "MIC by agar dilution, standard in-vitro test system", "format": "cell-based", "conditions": "agar with 5% defibrinated horse blood, 10^4 CFU/spot, 37° C., 5% carbon dioxide, 48 hours", "protocol": "(§1) The following results were obtained on a standard in-vitro test system. The activity is described in terms of the minimum inhibitory concentration (MIC) determined by the agar-dilution technique with an inoculum size of 10^4 CFU/spot. Typically, compounds are active in the range 0.01 to 256 μg/ml. Streptococci and enterococci were tested on agar supplemented with 5% defibrinated horse blood, an inoculum of 10^4 CFU/spot and an incubation temperature of 37° C. in an atmosphere of 5% carbon dioxide for 48 hours—blood is required for the growth of some of the test organisms."}, "[3]": {"tested_on": "Streptococcus pneumoniae", "test": "MIC by agar dilution, standard in-vitro test system", "format": "cell-based", "conditions": "agar with 5% defibrinated horse blood, 10^4 CFU/spot, 37° C., 5% carbon dioxide, 48 hours", "protocol": "as §1"}, "[4]": {"tested_on": "Staphylococcus aureus MRQR (methicillin resistant and quinolone resistant)", "test": "MIC by agar dilution, standard in-vitro test system", "format": "cell-based", "conditions": "inoculum 10^4 CFU/spot, 37° C., 24 hours", "protocol": "(§2) The following results were obtained on a standard in-vitro test system. The activity is described in terms of the minimum inhibitory concentration (MIC) determined by the agar-dilution technique with an inoculum size of 10^4 CFU/spot. Typically, compounds are active in the range 0.01 to 256 μg/ml.\n(§3) Staphylococci were tested on agar, using an inoculum of 10^4 CFU/spot and an incubation temperature of 37° C. for 24 hours—standard test conditions for the expression of methicillin resistance."}, "[5]": {"tested_on": "Staphylococcus aureus MSQS (methicillin sensitive and quinolone sensitive)", "test": "MIC by agar dilution, standard in-vitro test system", "format": "cell-based", "conditions": "inoculum 10^4 CFU/spot, 37° C., 24 hours", "protocol": "as §2, §3"}, "[6]": {"tested_on": "Moraxella catarrhalis", "test": "MIC by agar dilution, standard in-vitro test system", "format": "cell-based", "conditions": "inoculum 10^4 CFU/spot", "protocol": "as §2"}}, "data": [{"smiles": "CCOC(=O)c1cc(-c2ccc(N3C[C@H](Cn4ccnn4)OC3=O)cc2F)on1", "note": "[Example 2, Ethyl 5-{2-fluoro-4-[(5R)-2-oxo-5-(1H-1,2,3-triazol-1-ylmethyl)-1,3-oxazolidin-3-yl]phenyl}isoxazole-3-carboxylate]", "values": [{"measurement": "Ki", "setting": "[1]", "value": 47.3, "unit": "µM"}]}, {"smiles": "CCOC(=O)c1cc(-c2ccc(N3C[C@H](CNC(C)=O)OC3=O)cc2F)on1", "note": "[acetamide analogue of Example 2, reference compound]", "values": [{"measurement": "Ki", "setting": "[1]", "value": 15.3, "unit": "µM"}]}, {"smiles": "O=C1O[C@@H](Cn2ccnn2)CN1c1ccc(-c2c[nH]nn2)c(F)c1", "note": "[Example 7, (5R)-3-[3-Fluoro-4-(1H-1,2,3-triazol-4-yl)phenyl]-5-(1H-1,2,3-triazol-1-ylmethyl)-1,3-oxazolidin-2-one]", "values": [{"measurement": "Ki", "setting": "[1]", "value": 437, "unit": "µM"}]}, {"smiles": "Cc1cc(-c2ccc(N3C[C@H](Cn4ccnn4)OC3=O)cc2F)on1", "note": "[Example 1, (5R)-3-[3-Fluoro-4-(3-methylisoxazol-5-yl)phenyl]-5-(1H-1,2,3-triazol-1-ylmethyl)-1,3-oxazolidin-2-one]", "values": [{"measurement": "MIC", "setting": "[2]", "value": 0.5, "unit": "µg/mL"}, {"measurement": "MIC", "setting": "[3]", "value": 0.25, "unit": "µg/mL"}, {"measurement": "MIC", "setting": "[4]", "value": 1, "unit": "µg/mL"}, {"measurement": "MIC", "setting": "[5]", "value": 0.5, "unit": "µg/mL"}, {"measurement": "MIC", "setting": "[6]", "value": 1, "unit": "µg/mL"}]}, {"smiles": "CC(=O)NC[C@H]1CN(c2ccc(-c3c[nH]nn3)c(F)c2)C(=O)O1", "note": "[acetamide analogue of Example 7, reference compound]", "values": [{"measurement": "Ki", "setting": "[1]", "value": 106, "unit": "µM"}]}]}
